One assay deals with Cathepsin L (Homo sapiens, UniProt P07711). Nature of the assay: Cathepsin L enzyme assay. It is filed as biochemical. The note with it: Ki by Morrison equation; pH 5.5, substrate Z-Phe-Arg-Amc; read-out: Cat L. An excerpt:
Two wells contained DMSO only for controls.
Velocity was converted to μM/sec.

Another assay addresses Calpain. Nature of the assay: Calpain enzyme assay. It is filed as biochemical. The note with it: Ki by Morrison equation; pH 7.5, 5 mM CaCl2.

*1 amine or outer side, *2 acyl side, *3 side chain or, on linkers, in order; H or OH if unused. Where a SMILES comes first, the peptide text is derived from it. [ ]: non-standard residue; d: D form. 2Nal = N[CH](Cc1ccc2ccccc2c1)C(=O)O; X1 = CCC(C)C(N[*:1])C(=O)C(=O)[*:2]

Cathepsin L, sequence (P07711 114-333, species assumed): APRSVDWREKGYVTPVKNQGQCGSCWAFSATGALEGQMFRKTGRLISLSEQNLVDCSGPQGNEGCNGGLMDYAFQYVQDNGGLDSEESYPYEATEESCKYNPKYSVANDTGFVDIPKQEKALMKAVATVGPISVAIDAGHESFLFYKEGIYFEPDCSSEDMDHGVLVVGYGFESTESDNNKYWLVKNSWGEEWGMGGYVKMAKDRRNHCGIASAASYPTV

As for `CCC(C)C(NC(=O)C(=O)CCNC(=O)Cc1ccccc1)C(=O)NC(C)(C)C(=O)O` (stereo not drawn) [PHELIX133, 2-methyl-2-(3-methyl-2-(2-oxo-4-(2-phenylacetamido)butanamido)pentanamido)propanoic acid], the Ki on Cathepsin L was determined as 210 µM.

At Calpain, `CC(NC(=O)C(Cc1ccccc1)NC(=O)Cc1ccccc1)C(=O)C(=O)NC(Cc1ccccc1)C(=O)NC(Cc1ccc(-c2ccccc2)cc1)C(N)=O` (stereo not drawn) [PHELIX213, N-(1-((3-([1,1′-biphenyl]-4-yl)-1-amino-1-oxopropan-2-yl)amino)-1-oxo-3-phenylpropan-2-yl)-2-oxo-3-(3-phenyl-2-(2-phenylacetamido)propanamido)butanamide] displayed a Ki greater than 10 µM.

For the compound `CC(NC(=O)C(Cc1ccccc1)NC(=O)Cc1ccccc1)C(=O)C(=O)NC(Cc1ccccc1)C(=O)NC(Cc1ccc2ccccc2c1)C(N)=O` (stereo not drawn) [PHELIX216, N-(1-((1-amino-3-(naphthalen-2-yl)-1-oxopropan-2-yl)amino)-1-oxo-3-phenylpropan-2-yl)-2-oxo-3-(3-phenyl-2-(2-phenylacetamido)propanamido)butanamide], the Ki is greater than 1000 µM at Cathepsin L and greater than 100 µM at Calpain. For `CCC(C)C(NC(=O)C(=O)C(C)NC(=O)C(Cc1ccccc1)NC(=O)Cc1ccccc1)C(=O)NC1(C(=O)O)CCCC1` (stereo not drawn) [PHELIX217, 1-(3-methyl-2-(2-oxo-3-(3-phenyl-2-(2-phenylacetamido)propanamido)butanamido)pentanamido)cyclopentane-1-carboxylic acid] the same measures were 1080 µM and greater than 100 µM. For `CCC(C)C(NC(=O)C(=O)CCNC(=O)C(Cc1ccccc1)NC(=O)Cc1ccccc1)C(=O)NC(C)(C)C(=O)O` (stereo not drawn) [PHELIX218, 13-benzyl-5-(sec-butyl)-2,2-dimethyl-4,7,8,12,15-pentaoxo-16-phenyl-3,6,11,14-tetraazahexadecanoic acid], on Cathepsin L, the Ki is greater than 1000 µM. At Calpain, `CC(NC(=O)C(Cc1ccccc1)NC(=O)Cc1ccccc1)C(=O)C(=O)NC(Cc1ccccc1)C(=O)NC(Cc1ccc(-c2ccccc2)cc1)C(N)=O` (stereo not drawn) [PHELIX247, N-(1-((3-([1,1′-biphenyl]-4-yl)-1-amino-1-oxopropan-2-yl)amino)-1-oxo-3-phenylpropan-2-yl)-2-oxo-3-(3-phenyl-2-(2-phenylacetamido)propanamido)butanamide] displayed a Ki greater than 10 µM. For the compound `CC(NC(=O)C(Cc1ccccc1)NC(=O)Cc1ccccc1)C(=O)C(=O)NC(Cc1ccccc1)C(=O)NC(Cc1ccc(-c2ccccc2)cc1)C(N)=O` (stereo not drawn) [PHELIX248, N-(1-((3-([1,1′-biphenyl]-4-yl)-1-amino-1-oxopropan-2-yl)amino)-1-oxo-3-phenylpropan-2-yl)-2-oxo-3-(3-phenyl-2-(2-phenylacetamido)propanamido)butanamide], the Ki at Calpain is greater than 10 µM.

On Calpain, `CCC(C)C(NC(=O)C(CC(C)C)NC(=O)OCc1ccccc1)C(=O)C(=O)NCC(=O)NC(Cc1ccc2ccccc2c1)C(N)=O` (stereo not drawn) [PHELIX257, benzyl (1-((1-((2-((1-amino-3-(naphthalen-2-yl)-1-oxopropan-2-yl)amino)-2-oxoethyl)amino)-4-methyl-1,2-dioxohexan-3-yl)amino)-4-methyl-1-oxopentan-2-yl)carbamate] showed a Ki of 0.00092 µM.

For the compound `CCC(C)C(NC(=O)C(CC(C)C)NC(=O)OCc1ccccc1)C(=O)C(=O)NC(CCCNC(=N)N)C(=O)NC(Cc1ccc2ccccc2c1)C(N)=O` (stereo not drawn) [PHELIX289, benzyl (1-((1-((1-((1-amino-3-(naphthalen-2-yl)-1-oxopropan-2-yl)amino)-5-guanidino-1-oxopentan-2-yl)amino)-4-methyl-1,2-dioxohexan-3-yl)amino)-4-methyl-1-oxopentan-2-yl)carbamate], the Ki is less than 0.0002 µM at Cathepsin L and 0.0205 µM at Calpain. Regarding `CC[C@H](C)C(NC(=O)[C@H](CC(C)C)NC(=O)OCc1ccccc1)C(=O)C(=O)N[C@@H](CCCNC(=N)N)C(N)=O` (stereo partly drawn) [PHELIX290, benzyl (1-((1-((1-amino-5-guanidino-1-oxopentan-2-yl)amino)-4-methyl-1,2-dioxohexan-3-yl)amino)-4-methyl-1-oxopentan-2-yl)carbamate], the Ki turned out to be 0.0027 µM at Cathepsin L and 0.00727 µM at Calpain. With `CCC(C)C(NC(=O)C(CC(C)C)NC(=O)OCc1ccccc1)C(=O)C(=O)N(C)CC(=O)NC(Cc1ccc2ccccc2c1)C(N)=O` (stereo not drawn) [PHELIX291, benzyl (1-((1-((2-((1-amino-3-(naphthalen-2-yl)-1-oxopropan-2-yl)amino)-2-oxoethyl)(methyl)amino)-4-methyl-1,2-dioxohexan-3-yl)amino)-4-methyl-1-oxopentan-2-yl)carbamate], the Ki on Cathepsin L is 5.91 µM; on Calpain, greater than 10 µM. For `CCC(C)C(C(=O)C(=O)NCC(=O)NC(Cc1ccc2ccccc2c1)C(N)=O)N(C)C(=O)C(CC(C)C)NC(=O)OCc1ccccc1` (stereo not drawn) [PHELIX292, benzyl (1-((1-((2-((1-amino-3-(naphthalen-2-yl)-1-oxopropan-2-yl)amino)-2-oxoethyl)amino)-4-methyl-1,2-dioxohexan-3-yl)(methyl)amino)-4-methyl-1-oxopentan-2-yl)carbamate] the same measures were 0.0371 µM and 4.3 µM. As to `CCC(C)C(NC(=O)C(CC(C)C)NC(=O)OCc1ccccc1)C(=O)C(=O)NCC(=O)NC(Cc1ccc2ccccc2c1)C(N)=O` (stereo not drawn) [PHELIX293, benzyl (1-((1-((2-((1-amino-3-(naphthalen-2-yl)-1-oxopropan-2-yl)amino)-2-oxoethyl)amino)-4-methyl-1,2-dioxohexan-3-yl)amino)-4-methyl-1-oxopentan-2-yl)carbamate], at Calpain, the Ki is 1.19 µM. `CCC(C)C(NC(=O)C(CC(C)C)NC(C)=O)C(=O)C(=O)NCC(=O)NC(Cc1ccc2ccccc2c1)C(N)=O` (stereo not drawn) [PHELIX307, 3-(2-acetamido-4-methylpentanamido)-N-(2-((1-amino-3-(naphthalen-2-yl)-1-oxopropan-2-yl)amino)-2-oxoethyl)-4-methyl-2-oxohexanamide]: on Calpain, the Ki worked out at 0.00261 µM. In turn, `CCC(C)C(NC(=O)C(CC(C)C)NC(C)=O)C(=O)C(=O)NCC(=O)NC(Cc1ccc2ccccc2c1)C(N)=O` (stereo not drawn) [PHELIX310] registered a Ki on Calpain of 0.0055 µM. For the compound `CCC(C)C(NC(=O)CNC(=O)C(Cc1ccc2ccccc2c1)NC(C)=O)C(=O)C(=O)NC(CC(C)C)C(=O)NC(Cc1ccccc1)C(N)=O` (stereo not drawn) [PHELIX338, 3-(2-(2-acetamido-3-(naphthalen-2-yl)propanamido)acetamido)-N-(1-((1-amino-1-oxo-3-phenylpropan-2-yl)amino)-4-methyl-1-oxopentan-2-yl)-4-methyl-2-oxohexanamide] (Ac-[2Nal]G[X1]LF-NH2; configuration not given here), the Ki on Cathepsin L worked out at 2.88 µM. `CC(C)CC(NC(=O)C(Cc1ccccc1)NC(=O)OCc1ccccc1)C(=O)NC(Cc1ccccc1)C(=O)C(=O)NC(CCCNC(=N)N)C(N)=O` (stereo not drawn) [PHELIX339, benzyl (1-amino-10-benzyl-6-carbamoyl-1-imino-13-isobutyl-8,9,12,15-tetraoxo-17-phenyl-2,7,11,14-tetraazaheptadecan-16-yl)carbamate]: on Calpain, the Ki turned out to be 0.00218 µM.

For the compound `CCC(C)C(NC(=O)C(CC(C)C)NC(=O)OCc1ccccc1)C(=O)C(=O)N(C)C(Cc1ccccc1)C(N)=O` (stereo not drawn) [PHELIX358, benzyl (1-((1-((1-amino-1-oxo-3-phenylpropan-2-yl)(methyl)amino)-4-methyl-1,2-dioxohexan-3-yl)amino)-4-methyl-1-oxopentan-2-yl)carbamate], the Ki on Cathepsin L is greater than 1 µM.

These data come from patent US20190085024A1, “Alpha-Ketoamide Inhibitors Of Cysteine Proteases” (Phelix Therapeutics, priority 2017, published 2019).
